According to PubChem BioAssay AID493077 (The Scripps Research Institute Molecular Screening Center, 2011):
Active and inactive are the calls of the source.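 How the source made its calls: active means Zta binding inhibitor with IC50 at or below 10 µM; inactive means IC50 above 10 µM.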

The compounds below were run against Lytic switch protein BZLF1 (Epstein-Barr virus (strain B95-8)) (UniProt P03206) (assay: EBV Zta DNA binding inhibitor potency, late-stage follow-up, counter-screen for EBNA-1 inhibitor project, biochemical, fluorescence polarization, dose response, assay provider (AID 493077)). Conditions: purified Zta, Cy5-ZRE DNA.
Lytic switch protein BZLF1 (Epstein-Barr virus (strain B95-8)), sequence (P03206 whole entry, looked up): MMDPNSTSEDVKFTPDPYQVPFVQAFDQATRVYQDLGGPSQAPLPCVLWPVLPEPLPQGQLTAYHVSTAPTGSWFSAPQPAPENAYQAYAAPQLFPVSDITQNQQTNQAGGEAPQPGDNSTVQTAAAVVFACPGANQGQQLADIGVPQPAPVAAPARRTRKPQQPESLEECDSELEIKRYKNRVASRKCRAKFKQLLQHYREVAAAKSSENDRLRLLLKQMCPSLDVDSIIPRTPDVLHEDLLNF
For `COc1cccc2sc(NC(=O)c3ccc(C)c(C)c3)nc12`, the IC50 was > 111 µM (inactive).
With `Cc1cccc(-n2nnnc2SCC(=O)c2cc(C)n(CC3CCCO3)c2C)c1` (stereo not given) the IC50 was > 111 µM (inactive).
In the case of `CCn1c(C)cc(C(=O)CSc2nnnn2-c2ccccc2)c1C`, the IC50 is reported as > 111 µM (inactive).
For `CS(=O)(=O)c1ccc2nc(NC(=O)c3ccc(Cl)cc3)sc2c1`, the IC50 was > 111 µM (inactive).
`CS(=O)(=O)c1ccc2nc(NC(=O)c3cccc(F)c3)sc2c1` was tested, and the IC50 was > 111 µM (inactive).
With `Cc1cc(C(=O)CSc2nnnn2-c2cccc(F)c2)c(C)n1CC1CCCO1` (stereo not given) the IC50 was > 111 µM (inactive).
`CS(=O)(=O)c1ccc2nc(NC(=O)c3ccccc3Cl)sc2c1` was tested, and the IC50 was > 111 µM (inactive).
In the case of `COc1ccc2sc(NC(=O)c3ccc(C)c(C)c3)nc2c1`, the IC50 is reported as > 111 µM (inactive).
For `Cc1ccccc1C(=O)Nc1nc2ccc(S(C)(=O)=O)cc2s1`, the IC50 was > 111 µM (inactive).
In the case of `COc1cccc(C(=O)Nc2nc3ccc(S(C)(=O)=O)cc3s2)c1`, the IC50 is reported as > 111 µM (inactive).
With `COc1ccc2nc(NC(=O)c3ccc(C)c(C)c3)sc2c1` the IC50 was > 111 µM (inactive).
For `Cc1cc(C(=O)CSc2nnnn2C)c(C)n1CC1CCCO1` (stereo not given), the IC50 was > 111 µM (inactive).
`Cc1ccc(C(=O)Nc2nc3ccc(Br)cc3s2)cc1C` was tested, and the IC50 was > 111 µM (inactive).
`Cc1cc(C(=O)CSc2nnnn2-c2ccc(Cl)cc2)c(C)n1CC1CCCO1` (stereo not given) was tested, and the IC50 was > 111 µM (inactive).
In the case of `Cc1ccc(C(=O)Nc2nc3ccc(S(C)(=O)=O)cc3s2)cc1`, the IC50 is reported as > 111 µM (inactive).
For `CS(=O)(=O)c1ccc2nc(NC(=O)c3ccccc3F)sc2c1`, the IC50 was > 111 µM (inactive).
For `COCCn1c(C)cc(C(=O)CSc2nnnn2-c2ccccc2)c1C`, the IC50 was > 111 µM (inactive).
For `CS(=O)(=O)c1ccc2nc(NC(=O)c3cccc(Cl)c3)sc2c1`, the IC50 was > 111 µM (inactive).
With `Cc1cccc(C(=O)Nc2nc3ccc(S(C)(=O)=O)cc3s2)c1` the IC50 was > 111 µM (inactive).
With `Cc1ccc(C(=O)Nc2nc3cc(Br)ccc3s2)cc1C` the IC50 was > 111 µM (inactive).
In the case of `O=C(CSc1nnnn1-c1ccccc1)c1ccn(CC2CCCO2)c1` (stereo not given), the IC50 is reported as > 111 µM (inactive).
`Cc1ccccc1-n1nnnc1SCC(=O)c1cc(C)n(CC2CCCO2)c1C` (stereo not given) was tested, and the IC50 was > 111 µM (inactive).
For `Cc1cc(C(=O)CSc2nnnn2-c2ccccc2)c(C)n1C`, the IC50 was > 111 µM (inactive).
In the case of `COc1ccc(-n2nnnc2SCC(=O)c2cc(C)n(CC3CCCO3)c2C)cc1` (stereo not given), the IC50 is reported as > 111 µM (inactive).
In the case of `COc1ccccc1C(=O)Nc1nc2ccc(S(C)(=O)=O)cc2s1`, the IC50 is reported as > 111 µM (inactive).
`Cc1cc(C(=O)CSc2nnnn2-c2ccccc2)c(C)n1Cc1cccs1` was tested, and the IC50 was > 111 µM (inactive).
With `Cc1ccc(C(=O)Nc2nc3cc(F)ccc3s2)cc1C` the IC50 was > 111 µM (inactive).
In the case of `Cc1ccc(-n2nnnc2SCC(=O)c2cc(C)n(CC3CCCO3)c2C)cc1` (stereo not given), the IC50 is reported as > 111 µM (inactive).
For `COc1ccc(C(=O)Nc2nc3ccc(S(C)(=O)=O)cc3s2)cc1`, the IC50 was > 111 µM (inactive).
`Cc1cc(C(=O)CSc2nnnn2C2CC2)c(C)n1CC1CCCO1` (stereo not given) was tested, and the IC50 was > 111 µM (inactive).
